Test results published in patent publication US20200071327A1, “Prodrugs for the Treatment of Disease” (Oppilan Pharma Ltd., priority 2017, published 2020).

Molecular target: T1, full-length human S1P1 (Homo sapiens, UniProt P21453)
T1 construct: CHO-K1 Gαqi5 cells expression full-length human S1P1; expressed in transfected cells; host or cells: CHO-K1 Gαqi5 cells (membrane preparation)
Assay: GTPγS binding assay (scintillation proximity assay) on S1P1 membranes
Assay type: biochemical
Details: membranes from CHO-K1 Gαqi5 cells expressing full-length human S1P1; GTPγ35S; 60 minutes incubation
Description: S1P1 membrane is prepared from CHO-K1 Gαqi5 cells expression full-length human S1P1. Scintillation proximity assay (SPA) is performed by incubating membranes, GTPγ^35S, and compound 11 at various concentrations for 60 minutes. Wheat germ agglutinin-coated SPA beads are added and incubated for 60 minutes before centrifugation and scintillation counting.

T1 sequence (P21453 whole entry): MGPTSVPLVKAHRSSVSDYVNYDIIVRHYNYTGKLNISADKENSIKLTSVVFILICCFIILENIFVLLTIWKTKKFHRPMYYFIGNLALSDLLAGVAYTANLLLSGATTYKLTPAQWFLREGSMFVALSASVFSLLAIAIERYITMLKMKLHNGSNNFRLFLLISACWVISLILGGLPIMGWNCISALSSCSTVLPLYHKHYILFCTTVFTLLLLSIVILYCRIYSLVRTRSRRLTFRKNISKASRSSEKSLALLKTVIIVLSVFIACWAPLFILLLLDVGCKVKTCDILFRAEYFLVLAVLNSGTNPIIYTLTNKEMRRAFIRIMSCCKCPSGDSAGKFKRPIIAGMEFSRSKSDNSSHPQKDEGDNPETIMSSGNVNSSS

EC50: < 1000 nM
Compound: O=C1CC[C@@H](Oc2cc(Cl)c(-c3noc(-c4cn5cc(C(F)(F)F)cc(Cl)c5n4)n3)cc2Cl)CN1 [compound 11, (R)-5-(2,5-diehloro-4-(5-(8-chloro-6-(trifluoromethyl)imidazo[1,2-a]pyridin-2-yl)-1,2,4-oxadiazol-3-yl)phenoxy)piperidin-2-one]
